Data from patent publication US11965039B2, “Compstatin analogues and their medical uses” (priority 2018, dated 2024).
Where two headings read alike, the source gives them in different places. Starred links: 1 amine or outer side, 2 acyl side, 3 side chain; linkers in the order of their positions; H or OH if unused. Positions of bridges follow the written chain, without caps; N, C: chain ends. Non-standard residues stand in square brackets, D forms with d. Residues, ends and D or L forms follow the SMILES beside them. Groups on a side chain read outwards from the residue. *: point of attachment. (Piperazine-1-yl)‑acetyl = piperazin-1-yl-acetyl spacer, O=C(CN1CCN([*:1])CC1)[*:2]; C18 diacid = O=C(O)CCCCCCCCCCCCCCCCC(=O)*; C16 diacid = O=C(O)CCCCCCCCCCCCCCC(=O)*; γGlu = O=C(O)[C@H](CCC(=O)[*:2])N[*:1]; 1Nal = N[C@@H](Cc1cccc2ccccc12)C(=O)O; AEEA = NCCOCCOCC(=O)O; Sar = CNCC(=O)O

Legend:
[1] = tested on: classical complement pathway; assay: In vitro haemolysis assay (inhibition of classical complement pathway); type: cell-based, human; details: human serum, sensitized sheep red blood cells
How it was run: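 Compound dilutions preincubated 15 min at room temperature with diluted human serum (titrated per batch for 70-90% maximal haemolysis), then antibody-sensitized sheep RBC (10^7/well) added for 30 min at 37 °C in Tris/casein buffer, pH 7.4. Stopped with EDTA; haemolysis read at 405 nm; IC50 by 4PL fit.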

[2] = Solubility test at 10 mg/mL (visual inspection and light scattering); type: physicochemical; details: for Solubility, Condition 1: Acetate pH 4; for Solubility, Condition 2: Acetate pH 5; for Solubility, Condition 3: Phosphate pH 6; for Solubility, Condition 4: Phosphate pH 7; for Solubility, Condition 5: Phosphate pH 7.5
[3] = target: Human C3 (Complement tech cat #A113c) (human, UniProt P01024 23-1663); assay: cell-based or functional assay
Sequence of Human C3 (Complement tech cat #A113c) (P01024 23-1663 limits assumed): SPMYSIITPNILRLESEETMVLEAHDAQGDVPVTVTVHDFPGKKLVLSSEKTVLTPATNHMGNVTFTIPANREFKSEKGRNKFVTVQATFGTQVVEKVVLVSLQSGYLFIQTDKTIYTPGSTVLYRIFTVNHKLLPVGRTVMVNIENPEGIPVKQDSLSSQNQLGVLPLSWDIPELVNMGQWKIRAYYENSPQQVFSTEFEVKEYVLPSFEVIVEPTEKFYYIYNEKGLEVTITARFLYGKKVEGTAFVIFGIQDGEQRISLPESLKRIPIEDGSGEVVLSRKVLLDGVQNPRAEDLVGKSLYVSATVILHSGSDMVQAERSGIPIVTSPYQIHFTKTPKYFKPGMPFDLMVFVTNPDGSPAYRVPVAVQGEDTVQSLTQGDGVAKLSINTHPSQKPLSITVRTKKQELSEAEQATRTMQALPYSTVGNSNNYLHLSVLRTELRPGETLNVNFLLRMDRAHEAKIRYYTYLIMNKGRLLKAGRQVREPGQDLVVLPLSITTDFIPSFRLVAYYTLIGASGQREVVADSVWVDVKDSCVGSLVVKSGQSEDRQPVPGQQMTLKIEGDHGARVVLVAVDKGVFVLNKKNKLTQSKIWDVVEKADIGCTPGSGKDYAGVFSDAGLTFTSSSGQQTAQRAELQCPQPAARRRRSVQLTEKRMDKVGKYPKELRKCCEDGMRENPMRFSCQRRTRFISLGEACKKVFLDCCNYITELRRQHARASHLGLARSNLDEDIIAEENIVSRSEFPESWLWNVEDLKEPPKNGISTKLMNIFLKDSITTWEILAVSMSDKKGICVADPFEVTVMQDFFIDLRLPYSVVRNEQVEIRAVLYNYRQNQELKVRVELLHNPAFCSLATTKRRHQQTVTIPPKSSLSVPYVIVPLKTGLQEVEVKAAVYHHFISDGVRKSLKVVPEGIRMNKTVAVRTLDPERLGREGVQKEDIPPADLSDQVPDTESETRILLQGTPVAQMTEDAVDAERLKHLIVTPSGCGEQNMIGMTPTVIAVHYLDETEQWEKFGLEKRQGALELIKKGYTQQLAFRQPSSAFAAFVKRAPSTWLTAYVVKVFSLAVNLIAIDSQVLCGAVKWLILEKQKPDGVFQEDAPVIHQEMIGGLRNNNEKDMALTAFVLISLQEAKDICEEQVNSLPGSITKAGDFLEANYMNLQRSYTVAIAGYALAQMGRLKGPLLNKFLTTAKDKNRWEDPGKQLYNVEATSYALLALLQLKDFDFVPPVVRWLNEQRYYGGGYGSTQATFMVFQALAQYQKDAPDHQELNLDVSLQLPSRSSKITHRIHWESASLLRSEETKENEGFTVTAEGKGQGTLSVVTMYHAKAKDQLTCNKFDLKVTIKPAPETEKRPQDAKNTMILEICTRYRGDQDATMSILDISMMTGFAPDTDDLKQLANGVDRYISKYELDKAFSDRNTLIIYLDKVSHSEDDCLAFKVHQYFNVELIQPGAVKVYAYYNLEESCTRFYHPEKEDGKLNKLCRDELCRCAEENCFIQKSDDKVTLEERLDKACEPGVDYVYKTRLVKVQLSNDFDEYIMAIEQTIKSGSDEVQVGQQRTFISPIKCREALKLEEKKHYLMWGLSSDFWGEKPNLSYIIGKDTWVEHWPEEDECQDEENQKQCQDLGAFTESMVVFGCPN

[4] = Table 3, given as upper bounds, read-out: IC50, inhibition of hemolysis

Row | Molecule | IC50 [1, 4] | Solubility, Condition 1 [2] | Solubility, Condition 2 [2] | Solubility, Condition 3 [2] | Solubility, Condition 4 [2] | Solubility, Condition 5 [2] | IC50 ([1]; Table 4, valine 3 vs isoleucine 3 pairs, read-out: CP hemolysis IC50) | inhibition of hemolysis IC50 [3]
1 | CC[C@H](C)[C@H](NC(=O)[C@H](C)NC(=O)[C@H](CO)NC(=O)CNC(=O)[C@H](CCC(=O)O)NC(C)=O)C(=O)N[C@H]1CSSC[C@@H](C(=O)N(C)CC(=O)N[C@@H](CCC(=O)O)C(=O)NCC(=O)N[C@@H](CCC(=O)O)C(N)=O)NC(=O)[C@H](CCCNC(=N)N)NC(=O)[C@H](Cc2c[nH]cn2)NC(=O)[C@H](CCC(=O)O)NC(=O)CNC(=O)[C@H](Cc2c[nH]c3ccccc23)NC(=O)[C@H](CC(=O)O)NC(=O)[C@H](CCC(N)=O)NC(=O)[C@H](Cc2c[nH]c3ccccc23)NC(=O)[C@H]([C@@H](C)CC)NC1=O [Compound 44] (Ac-EGSAICIWQDWGEHRC[Sar]EGE-NH2; disulfide 6-16) | < 250 nM | − (“−” denotes lack of solubility at the given condition, as UV absorbance at 340 nm exceeds 0.1 AU and/or it is visibly turbid or contains particles) | − (“−” denotes lack of solubility at the given condition, as UV absorbance at 340 nm exceeds 0.1 AU and/or it is visibly turbid or contains particles) | + (“+” denotes solubility at the given condition, as determined by UV absorbance being less than 0.1 AU at 340 nm and the sample being clear when manually inspected) | + (“+” denotes solubility at the given condition, as determined by UV absorbance being less than 0.1 AU at 340 nm and the sample being clear when manually inspected) | + (“+” denotes solubility at the given condition, as determined by UV absorbance being less than 0.1 AU at 340 nm and the sample being clear when manually inspected) |  | 
2 | CC[C@H](C)[C@H](NC(=O)[C@H](C)NC(=O)[C@H](CO)NC(=O)[C@H](CO)NC(=O)[C@H](CCC(=O)O)NC(C)=O)C(=O)N[C@H]1CSSC[C@@H](C(=O)N[C@H](C(N)=O)[C@@H](C)O)NC(=O)[C@H](CCCNC(=N)N)NC(=O)[C@H](Cc2c[nH]cn2)NC(=O)[C@H](CCC(=O)O)NC(=O)CNC(=O)[C@H](Cc2c[nH]c3ccccc23)NC(=O)[C@H](CC(=O)O)NC(=O)[C@H](CCC(N)=O)NC(=O)[C@H](Cc2c[nH]c3ccccc23)NC(=O)[C@H]([C@@H](C)CC)NC1=O [Compound 3] (Ac-ESSAICIWQDWGEHRCT-NH2; disulfide 6-16) | < 100 nM | + (“+” denotes solubility at the given condition, as determined by UV absorbance being less than 0.1 AU at 340 nm and the sample being clear when manually inspected) | − (“−” denotes lack of solubility at the given condition, as UV absorbance at 340 nm exceeds 0.1 AU and/or it is visibly turbid or contains particles) | − (“−” denotes lack of solubility at the given condition, as UV absorbance at 340 nm exceeds 0.1 AU and/or it is visibly turbid or contains particles) | + (“+” denotes solubility at the given condition, as determined by UV absorbance being less than 0.1 AU at 340 nm and the sample being clear when manually inspected) | + (“+” denotes solubility at the given condition, as determined by UV absorbance being less than 0.1 AU at 340 nm and the sample being clear when manually inspected) | 69 nM | 
3 | CC[C@H](C)[C@@H]1NC(=O)[C@@H](NC(=O)[C@@H](NC(=O)[C@H](CCC(=O)O)NC(=O)[C@H](CO)NC(C)=O)[C@@H](C)CC)CSSC[C@@H](C(=O)N[C@H](C(=O)N[C@@H](CCC(=O)O)C(=O)N[C@@H](C)C(N)=O)[C@@H](C)O)NC(=O)[C@H](CCCNC(=N)N)NC(=O)[C@H](Cc2c[nH]cn2)NC(=O)[C@H](CCC(=O)O)NC(=O)CNC(=O)[C@H](Cc2c[nH]c3ccccc23)NC(=O)[C@H](CC(=O)O)NC(=O)[C@H](CCC(N)=O)NC(=O)[C@H](Cc2c[nH]c3ccccc23)NC1=O [Compound 32] (Ac-SEICIWQDWGEHRCTEA-NH2; disulfide 4-14) | < 100 nM | − (“−” denotes lack of solubility at the given condition, as UV absorbance at 340 nm exceeds 0.1 AU and/or it is visibly turbid or contains particles) | − (“−” denotes lack of solubility at the given condition, as UV absorbance at 340 nm exceeds 0.1 AU and/or it is visibly turbid or contains particles) | − (“−” denotes lack of solubility at the given condition, as UV absorbance at 340 nm exceeds 0.1 AU and/or it is visibly turbid or contains particles) | + (“+” denotes solubility at the given condition, as determined by UV absorbance being less than 0.1 AU at 340 nm and the sample being clear when manually inspected) | + (“+” denotes solubility at the given condition, as determined by UV absorbance being less than 0.1 AU at 340 nm and the sample being clear when manually inspected) |  | 
4 | CC[C@H](C)[C@@H]1NC(=O)[C@@H](NC(=O)[C@@H](NC(=O)[C@H](CCC(=O)O)NC(C)=O)[C@@H](C)CC)CSSC[C@@H](C(=O)N[C@H](C(=O)N[C@@H](CCC(=O)O)C(N)=O)[C@@H](C)O)NC(=O)[C@H](CCCNC(=N)N)NC(=O)[C@H](Cc2c[nH]cn2)NC(=O)[C@H](CCC(=O)O)NC(=O)CNC(=O)[C@H](Cc2c[nH]c3ccccc23)NC(=O)[C@H](CC(=O)O)NC(=O)[C@H](CCC(N)=O)NC(=O)[C@H](Cc2c[nH]c3ccccc23)NC1=O [Compound 33] (Ac-EICIWQDWGEHRCTE-NH2; disulfide 3-13) | < 100 nM | − (“−” denotes lack of solubility at the given condition, as UV absorbance at 340 nm exceeds 0.1 AU and/or it is visibly turbid or contains particles) | − (“−” denotes lack of solubility at the given condition, as UV absorbance at 340 nm exceeds 0.1 AU and/or it is visibly turbid or contains particles) | + (“+” denotes solubility at the given condition, as determined by UV absorbance being less than 0.1 AU at 340 nm and the sample being clear when manually inspected) | + (“+” denotes solubility at the given condition, as determined by UV absorbance being less than 0.1 AU at 340 nm and the sample being clear when manually inspected) | + (“+” denotes solubility at the given condition, as determined by UV absorbance being less than 0.1 AU at 340 nm and the sample being clear when manually inspected) |  | 
5 | CC[C@H](C)[C@@H]1NC(=O)[C@@H](NC(=O)[C@H](Cc2ccccc2)NC(=O)[C@H](C)NC(=O)[C@H](CO)NC(=O)CNC(=O)[C@H](CCC(=O)O)NC(C)=O)CSSC[C@@H](C(=O)N[C@H](C(=O)N[C@@H](CCC(=O)O)C(N)=O)[C@@H](C)O)NC(=O)[C@H](CCCNC(=N)N)NC(=O)[C@H](Cc2c[nH]cn2)NC(=O)[C@H](CCC(=O)O)NC(=O)CNC(=O)[C@H](Cc2c[nH]c3ccccc23)NC(=O)[C@H](CC(=O)O)NC(=O)[C@H](CCC(N)=O)NC(=O)[C@H](Cc2cccc3ccccc23)NC1=O [Compound 56] (Ac-EGSAFCI[1Nal]QDWGEHRCTE-NH2; disulfide 6-16) | < 100 nM | − (“−” denotes lack of solubility at the given condition, as UV absorbance at 340 nm exceeds 0.1 AU and/or it is visibly turbid or contains particles) | − (“−” denotes lack of solubility at the given condition, as UV absorbance at 340 nm exceeds 0.1 AU and/or it is visibly turbid or contains particles) | + (“+” denotes solubility at the given condition, as determined by UV absorbance being less than 0.1 AU at 340 nm and the sample being clear when manually inspected) | + (“+” denotes solubility at the given condition, as determined by UV absorbance being less than 0.1 AU at 340 nm and the sample being clear when manually inspected) | + (“+” denotes solubility at the given condition, as determined by UV absorbance being less than 0.1 AU at 340 nm and the sample being clear when manually inspected) |  | 
6 | Ac-ICIWQDWGEHRCTEGEK([AEEA-AEEA-γGlu-C16 diacid])-NH2 (disulfide 2-12; SMILES CC[C@H](C)[C@H](NC(C)=O)C(=O)N[C@H]1CSSC[C@@H](C(=O)N[C@H](C(=O)N[C@@H](CCC(=O)O)C(=O)NCC(=O)N[C@@H](CCC(=O)O)C(=O)N[C@@H](CCCCNC(=O)COCCOCCNC(=O)COCCOCCNC(=O)CC[C@H](NC(=O)CCCCCCCCCCCCCCC(=O)O)C(=O)O)C(N)=O)[C@@H](C)O)NC(=O)[C@H](CCCNC(=N)N)NC(=O)[C@H](Cc2c[nH]cn2)NC(=O)[C@H](CCC(=O)O)NC(=O)CNC(=O)[C@H](Cc2c[nH]c3ccccc23)NC(=O)[C@H](CC(=O)O)NC(=O)[C@H](CCC(N)=O)NC(=O)[C@H](Cc2c[nH]c3ccccc23)NC(=O)[C@H]([C@@H](C)CC)NC1=O) [Compound 94] |  |  |  |  |  |  |  | < 500 nM
7 | Ac-ICIWQDWGEHRCTEGK([AEEA-AEEA-γGlu-C18 diacid])-NH2 (disulfide 2-12; SMILES CC[C@H](C)[C@H](NC(C)=O)C(=O)N[C@H]1CSSC[C@@H](C(=O)N[C@H](C(=O)N[C@@H](CCC(=O)O)C(=O)NCC(=O)N[C@@H](CCCCNC(=O)COCCOCCNC(=O)COCCOCCNC(=O)CC[C@H](NC(=O)CCCCCCCCCCCCCCCCC(=O)O)C(=O)O)C(N)=O)[C@@H](C)O)NC(=O)[C@H](CCCNC(=N)N)NC(=O)[C@H](Cc2c[nH]cn2)NC(=O)[C@H](CCC(=O)O)NC(=O)CNC(=O)[C@H](Cc2c[nH]c3ccccc23)NC(=O)[C@H](CC(=O)O)NC(=O)[C@H](CCC(N)=O)NC(=O)[C@H](Cc2c[nH]c3ccccc23)NC(=O)[C@H]([C@@H](C)CC)NC1=O) [Compound 96] |  |  |  |  |  |  |  | < 1000 nM
8 | Ac-ICIWQDWGEHRCTEGK([AEEA-AEEA-(Piperazine-1-yl)‑acetyl-C16 diacid])-NH2 (disulfide 2-12) [Compound 95] |  |  |  |  |  |  |  | < 500 nM
